According to patent publication EP4789666A1, “RNA M6A REGULATOR COMPOSITION, PREPARATION METHOD THEREFOR, AND USE THEREOF” (SHANGHAI MERNA THERAPEUTICS CO. LTD, priority 2023, dated 2025):
Each block holds one compound with its values, some of them ahead of it.

Experiments:
[1] = test system: rat models with hand-foot skin reaction; experiment: Rat models with hand-foot skin reaction, topical ointment (incidence rate, histology, immunohistochemistry); type: in vivo, SD rats; settings: for Incidence rate, left paw / Incidence rate, right paw: modeling drug alone by gavage once daily 30 days (sorafenib 100, erlotinib 70, afatinib 50, osimertinib 60 mg/kg), no compound in ointment; for successful modeling rates for the hand-foot skin reaction: once daily by gavage at 100, 70, 50 and 60 mg/kg (sorafenib, erlotinib, afatinib, osimertinib), SD rats
Experimental: After adaptive feeding for one week, SD rats (with a body weight of approximately 200 g) were randomly divided into groups with balanced body weight, with 12 rats in each group. Modeling drugs (including sorafenib, erlotinib, afatinib, and osimertinib) were respectively dissolved in a solution containing 5% of DMSO, 45% of PEG400, and 50% of H2O, and the modeling drugs were diluted to required concentrations and then administered once daily by gavage at doses shown in Table 3. After administration by gavage for 1 hour, 0.05 g of ointments containing different mass proportions of test compounds were evenly applied to left paws of the rats, a blank matrix ointment was applied to right paws of the rats to serve as a self-control, and no ointment was applied to the rats in a blank control group. After drug application, four limbs were continuously immobilized for 2 hours, then wiped with clean water to remove the residual drugs, removed from immobilization, and restored to free movement. The modeling drugs, the blank matrix ointment, and the ointments containing the test compounds were all administered once daily. After continuous administration for 30 days, the rats were euthanized, and paw plantar skin tissues were collected, fixed in 10% neutral formalin, […]. The ointments for the test compounds were prepared by mixing the compounds, white beeswax, white petrolatum, and light liquid paraffin in specific ratios (weight ratios of 3 ointments were respectively 1:18:58:23, 3:18:57:22, and 10:20:40:30). The blank matrix ointment was prepared by mixing white beeswax, white petrolatum, and light liquid paraffin in a specific ratio (weight ratio of 18:60:22).
Tissue staining: After dewaxing and rehydration, the paw plantar skin tissue sections of the above rats were stained in a hematoxylin solution for several minutes, cleaned, and placed in 1% acid alcohol for soaking until the sections faded to light blue-red. After cleaning with running water for 5 minutes, the sections were stained with eosin for 2-3 minutes, cleaned to remove excess dyes, dehydrated, then permeabilized by adding xylene for several minutes, and sealed and fixed with a neutral resin. The stratum corneum was observed under an optical microscope, and the thickness of the epidermal stratum corneum was measured using Dmetrix software.
Immunohistochemical staining: After dewaxing and hydration, the paw plantar skin tissue sections of the above rats were incubated with 3% H2O2 at room temperature for 30 minutes and blocked with 10% goat serum for 30 minutes after antigen retrieval. A KRT1 antibody (Abcam, ab93652) and a Loricrin antibody (Abcam, ab183646) were added dropwise, the sections were incubated overnight at 4°C, and an HRP secondary antibody (ZSGB-BIO, PV-6001) and a DAB kit (ZSG-BIO, ZLI9017) were added for color development. The sections were re-stained with hematoxylin, cleaned, and sealed and fixed with a neutral resin, and the expression amounts of KRT1 and Loricrin were observed under an optical microscope.
An incidence rate calculation method involves a proportion of animals in each group meeting the above criteria for determining successful modeling, that is, incidence rate = (number of successfully modeled rats/total number of rats in the group)*100%. […]

[2] = test system: kinase inhibitor-induced mouse model with hand-foot skin reaction; experiment: Kinase inhibitor-induced mouse model with hand-foot skin reaction; type: in vivo, ICR mice; settings: for degree of swelling of the hind limb toes of the mice: continuous oral administration of modeling drug for 14 days; for epidermal layer and stratum corneum in the skin tissues of the hind limb toes: modeling drug oral for 14 days versus normal control group, pathological staining; for skin of the hind limb toes of the mice (appearance): modeling for 14 days (sorafenib 100 mg/kg, osimertinib 10 mg/kg oral), versus normal control group; for cytokine IL-1β in the skin tissues of the hind limb toes: immunohistochemistry, p<0.05
From the text: After adaptive feeding for 7 days, SPF-grade ICR mice (male, 5-6 weeks old, with a body weight of approximately 35 g) were randomly divided into groups, including a blank control group (6 mice), a sorafenib modeling group (6 mice), an osimertinib modeling group (6 mice), a sorafenib + compound of formula (I) group (6 mice), an osimertinib + compound of formula (I) group (6 mice), a sorafenib + nicotinamide group (6 mice), and an osimertinib + nicotinamide group (6 mice). The groups were respectively administered corresponding modeling drugs by oral gavage (sorafenib at 100 mg/kg and osimertinib at 10 mg/kg) once daily; and the blank control group was administered an equivalent volume of normal saline. After administration with the chemotherapeutic drugs for 2 weeks, the ointments containing the compound of formula (I) (at a compound content of 3%) used in Example 10 were respectively applied topically in the groups, or nicotinamide was orally administered (100 mg/kg) once daily continuously for 16 days.
(§1) Measurement of the degree of swelling of toes: The degree of swelling of hind limb toes of the mice was measured using a toe swelling tester (KW-7C, Nanjing Calvin Biotechnology Co., Ltd.) before administration with the modeling drugs, after administration with the modeling drugs for 2 weeks, and before sacrifice, respectively. Before measurement, ankle joints of hind feet of the mice were marked at same positions before administration, after administration for 2 weeks, and before sacrifice. During measurement, water was properly located at the same level as the marked positions, and numerical values were recorded after becoming stable.
(§2) Pathological staining of skin tissues: Skin tissue samples were selected from hind limb toes of the mice and placed in 4% paraformaldehyde for fixation at room temperature for 4 hours. Then, the tissues were taken out and rinsed with running water for several hours. The samples were subjected to dehydration treatment with 70%, 80%, and 90% ethanol solutions, followed by treatment with a mixed solution of equal amounts of absolute alcohol and xylene for 15 minutes, and then permeabilized twice with a xylene solution for 15 minutes each time until the samples became transparent. The samples were placed in a mixture of half xylene and half paraffin for soaking for 15 minutes, and then, paraffin I and paraffin II were added for wax penetration for one hour, respectively. After embedding with paraffin, the samples were sectioned, baked, dewaxed, and hydrated. Then, the hydrated sections were placed in a hematoxylin solution (ZSGB-BIO, article No. 23041001) for staining for 3 minutes, and a differentiation solution of hydrochloric acid in ethanol was added for differentiation for 15 seconds. After rinsing with water, a Scott bluing solution (Servicebio, article No. 20230801) was added for bluing for 15 seconds. After rinsing with running water, the sections were stained with an eosin solution (Solarbio, article No. 33535) for 3 minutes, rinsed with running water, dehydrated, permeabilized, sealed, and inspected under a microscope.
(§3) Immunohistochemical staining: After baking, dewaxing, and hydration, paraffin sections of skin tissues of hind limb toes of the mice were subjected to antigen retrieval using a 0.2 M citric acid buffer solution (containing 1.534 g of citric acid, 3.1 g of sodium citrate, and 100 mL of distilled water, pH 4.7). Endogenous […] was removed using 3% hydrogen peroxide (Shandong Annjet High-Tech Disinfection Technology Co., Ltd., article No. 20290902), and the sections were incubated at room temperature for 10 minutes and then fully rinsed with a PBS buffer solution (containing 8 g of NaCl, 0.2 g of KCl, 1.44 g of Na2HPO4, and 1 M HCl, pH 7.4). The sections were permeabilized with 0.5% Triton-X-100 (AmyJet Scientific, article No. A-CSH436-100 mL), respectively permeabilized with mouse anti-IL-1β and rabbit IL-8 for 10 minutes, and not permeabilized with rabbit anti-IL-6. […]

[3] = test system: chemotherapeutic drug-induced mouse model with hand-foot syndrome; experiment: Chemotherapeutic drug-induced mouse model with hand-foot syndrome; type: in vivo, ICR mice; settings: for degree of swelling of the hind limb toes of the mice: continuous oral administration of modeling drug for 14 days; for epidermal layer and stratum corneum in the skin tissues of the hind limb toes: modeling drug oral for 14 days versus normal control group, pathological staining; for skin of the hind limb toes of the mice (appearance): modeling for 14 days (capecitabine 200 mg/kg, docetaxel 25 mg/kg oral), versus normal control group
From the text: After adaptive feeding for 7 days, SPF-grade ICR mice (male, 5-6 weeks old, with a body weight of approximately 35 g) were randomly divided into groups, including a blank control group (6 mice), a capecitabine modeling group (6 mice), a docetaxel modeling group (6 mice), a capecitabine + compound of formula (I) group (6 mice), a docetaxel + compound of formula (I) group (6 mice), a capecitabine + nicotinamide group (6 mice), and a docetaxel + nicotinamide group (6 mice). The groups were respectively administered corresponding modeling drugs by oral gavage (capecitabine at 200 mg/kg and docetaxel at 25 mg/kg) once daily; and the blank control group was administered an equivalent volume of normal saline. After administration with the chemotherapeutic drugs for 2 weeks, the ointments containing the compound of formula (I) (at a compound content of 3%) used in Example 10 were respectively applied topically in the groups, or nicotinamide was orally administered (100 mg/kg) once daily continuously for 16 days.
as §1, §2, §3

[4] = immunohistochemical staining, successfully modeled rats
[5] = successfully modeled rats versus normal rats, FIG. 8
[6] = capecitabine and docetaxel models, 3% ointment topical or nicotinamide 100 mg/kg oral, once daily 16 days
[7] = sorafenib and osimertinib models, 3% ointment topical or nicotinamide 100 mg/kg oral, once daily 16 days

degree of swelling of the hind limb toes of the mice [2]: significant swelling
epidermal layer and stratum corneum in the skin tissues of the hind limb toes [2]: significantly thickened
skin of the hind limb toes of the mice (appearance) [2]: obvious erythema and rhagades
cytokine IL-1β in the skin tissues of the hind limb toes ([2]; sorafenib oral for 14 days versus normal control group): significantly increased
Structure (SMILES): CNC(=O)c1cc(Oc2ccc(NC(=O)Nc3ccc(Cl)c(C(F)(F)F)c3)cc2)ccn1 [Sorafenib, sorafenib, reference compound]
KRT1 and Loricrin in tissues [1, 4]: significantly increased
Incidence rate, left paw [1]: 9/12 (75%)
Incidence rate, right paw [1]: 9/12 (75%)
successful modeling rates for the hand-foot skin reaction [1]: 75%
stratum corneum thickness of the paw plantar skin [1, 5]: significantly higher

Structure (SMILES): CN(C)C/C=C/C(=O)Nc1cc2c(Nc3ccc(F)c(Cl)c3)ncnc2cc1O[C@H]1CCOC1 [Afatinib, afatinib, reference compound]
KRT1 and Loricrin in tissues [1, 4]: significantly increased
Incidence rate, left paw [1]: 8/12 (66.7%)
Incidence rate, right paw [1]: 8/12 (66.7%)
successful modeling rates for the hand-foot skin reaction [1]: 66.7%
stratum corneum thickness of the paw plantar skin [1, 5]: significantly higher

cytokine IL-6 in the skin tissues of the hind limb toes ([3]; docetaxel oral for 14 days versus normal control group, immunohistochemistry, p<0.05): significantly increased
epidermal layer and stratum corneum in the skin tissues of the hind limb toes [3]: significantly thickened
skin of the hind limb toes of the mice (appearance) [3]: obvious erythema, rhagades, and blisters
Structure (SMILES): CC(=O)O[C@@]12CO[C@@H]1C[C@H](O)[C@@]1(C)C(=O)[C@H](O)C3=C(C)[C@@H](OC(=O)[C@H](O)[C@@H](NC(=O)OC(C)(C)C)c4ccccc4)C[C@@](O)([C@@H](OC(=O)c4ccccc4)[C@H]21)C3(C)C [Docetaxel, docetaxel]
degree of swelling of the hind limb toes of the mice [3]: swelling of the hind limb toes of the mice was caused

Structure (SMILES): C#Cc1cccc(Nc2ncnc3cc(OCCOC)c(OCCOC)cc23)c1 [Erlotinib, erlotinib, reference compound]
KRT1 and Loricrin in tissues ([1]; rat, in vivo): significantly increased
stratum corneum thickness of the paw plantar skin ([1]; rat, in vivo): significantly higher

cytokine IL-8 in the skin tissues of the hind limb toes ([3]; capecitabine oral for 14 days versus normal control group, immunohistochemistry, p<0.05): significantly increased
epidermal layer and stratum corneum in the skin tissues of the hind limb toes [3]: significantly thickened
skin of the hind limb toes of the mice (appearance) [3]: obvious erythema, rhagades, and blisters
Structure (SMILES): CCCCCOC(=O)Nc1nc(=O)n([C@@H]2O[C@H](C)[C@@H](O)[C@H]2O)cc1F [Capecitabine, capecitabine]
degree of swelling of the hind limb toes of the mice [3]: swelling of the hind limb toes of the mice was caused

degree of swelling of the hind limb toes of the mice [2]: significant swelling
epidermal layer and stratum corneum in the skin tissues of the hind limb toes [2]: significantly thickened
skin of the hind limb toes of the mice (appearance) [2]: obvious erythema and rhagades
cytokine IL-1β in the skin tissues of the hind limb toes ([2]; osimertinib oral for 14 days versus normal control group): significantly increased
Structure (SMILES): C=CC(=O)Nc1cc(Nc2nccc(-c3cn(C)c4ccccc34)n2)c(OC)cc1N(C)CCN(C)C [Osimertinib, osimertinib]
KRT1 and Loricrin in tissues ([1]; rat, in vivo): significantly increased
stratum corneum thickness of the paw plantar skin ([1]; rat, in vivo): significantly higher

Structure (SMILES): NC(=O)c1cccnc1 [Nicotinamide, nicotinamide]
swelling of the toes caused by the modeling drugs [3, 6]: it was not observed that oral administration of the nicotinamide at 100 mg/kg significantly alleviated the swelling
thickening of the epidermal layer and the stratum corneum in the skin tissues [3, 6]: mildly alleviated
expression level of cytokine IL-8 in the skin tissues of the hind limb toes ([3]; capecitabine model, 3% ointment topical or nicotinamide 100 mg/kg oral): didn't have a significant impact
expression level of cytokine IL-6 in the skin tissues of the hind limb toes ([3]; docetaxel model, 3% ointment topical or nicotinamide 100 mg/kg oral): didn't have a significant impact
expression level of cytokine IL-1β in the skin tissues of the hind limb toes ([2]; osimertinib model, 3% ointment topical or nicotinamide 100 mg/kg oral): didn't have a significant impact
swelling of the toes caused by the modeling drugs [2, 7]: it was not observed that oral administration of the nicotinamide at 100 mg/kg significantly alleviated the swelling
thickening of the epidermal layer and the stratum corneum in the skin tissues [2, 7]: didn't significantly alleviate
expression level of cytokine IL-1β in the skin tissues of the hind limb toes ([2]; sorafenib model, 3% ointment topical or nicotinamide 100 mg/kg oral): didn't have a significant impact
